#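 Exposure lasted 48 hours, with cells grown in 96-well plates and compounds tested at five concentrations. The concentration for 50% growth inhibition is given as GI50.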 Activity calls are given as the source filed them. No stated cut-off is given here; in the data, active = GI50 up to about 1.1 µM and inactive = higher.
# Legend:
# Test in all cases: NCI anticancer screen, dose series, 48 h
# M14 = test system: M14
# OVCAR-3 = test system: OVCAR-3
# NCI-H460 = test system: NCI-H460
# UO-31 = test system: UO-31
# CAKI-1 = test system: CAKI-1
# RXF 393 = test system: RXF 393
# 786-0 = test system: 786-0
# HOP-62 = test system: HOP-62
# SN12C = test system: SN12C
# Malme-3M = test system: Malme-3M
# LOX IMVI = test system: LOX IMVI
# HCC 2998 = test system: HCC 2998
# K562 = test system: K562
# IGROV-1 = test system: IGROV-1
# EKVX = test system: EKVX
# OVCAR-4 = test system: OVCAR-4
# SK-MEL-2 = test system: SK-MEL-2
# Hs-578T = test system: Hs-578T
# MCF7 = test system: MCF7
SMILES,GI50 (M14),GI50 (OVCAR-3),GI50 (NCI-H460),GI50 (UO-31),GI50 (CAKI-1),GI50 (RXF 393),GI50 (786-0),GI50 (HOP-62),GI50 (SN12C),GI50 (Malme-3M),GI50 (LOX IMVI),GI50 (HCC 2998),GI50 (K562),GI50 (IGROV-1),GI50 (EKVX),GI50 (OVCAR-4),GI50 (SK-MEL-2),GI50 (Hs-578T),GI50 (MCF7)
O=C(Cc1csc(-c2nc(CC(=O)NNc3ccccc3)cs2)n1)NNc1ccccc1,> 100 µM (inactive),> 100 µM (inactive),23.5 µM (inactive),> 100 µM (inactive),> 100 µM (inactive),> 100 µM (inactive),35.6 µM (inactive),> 100 µM (inactive),> 100 µM (inactive),> 100 µM (inactive),19.6 µM (inactive),43 µM (inactive),32.8 µM (inactive),> 100 µM (inactive),> 100 µM (inactive),> 100 µM (inactive),> 100 µM (inactive),,
CC1=CC(=O)c2cccc(NC3=NCCO3)c21,47.3 µM (inactive),25.4 µM (inactive),31.3 µM (inactive),76.6 µM (inactive),> 100 µM (inactive),48.9 µM (inactive),86.5 µM (inactive),> 100 µM (inactive),52.7 µM (inactive),30.6 µM (inactive),37.8 µM (inactive),33.4 µM (inactive),34.5 µM (inactive),36.1 µM (inactive),> 100 µM (inactive),78.7 µM (inactive),97.1 µM (inactive),76.9 µM (inactive),
C/C(CCn1[nH]c(=O)ccc1=O)=N\O,> 100 µM (inactive),> 100 µM (inactive),> 100 µM (inactive),> 100 µM (inactive),> 100 µM (inactive),> 100 µM (inactive),> 100 µM (inactive),> 100 µM (inactive),> 100 µM (inactive),> 100 µM (inactive),> 100 µM (inactive),> 100 µM (inactive),> 100 µM (inactive),> 100 µM (inactive),> 100 µM (inactive),> 100 µM (inactive),> 100 µM (inactive),,
C[C@@H](NC1CCC[C@@H]1O)c1ccccc1 (stereo partly specified),> 100 µM (inactive),> 100 µM (inactive),> 100 µM (inactive),> 100 µM (inactive),> 100 µM (inactive),> 100 µM (inactive),> 100 µM (inactive),> 100 µM (inactive),> 100 µM (inactive),> 100 µM (inactive),> 100 µM (inactive),> 100 µM (inactive),> 100 µM (inactive),> 100 µM (inactive),> 100 µM (inactive),> 100 µM (inactive),> 100 µM (inactive),,
NC1=NS(=O)(=O)Nc2nc(-c3ccc([N+](=O)[O-])cc3)[nH]c21,> 100 µM (inactive),> 100 µM (inactive),> 100 µM (inactive),> 100 µM (inactive),> 100 µM (inactive),> 100 µM (inactive),> 100 µM (inactive),> 100 µM (inactive),> 100 µM (inactive),> 100 µM (inactive),> 100 µM (inactive),> 100 µM (inactive),> 100 µM (inactive),> 100 µM (inactive),,> 100 µM (inactive),> 100 µM (inactive),,
CN1CCC2(CC1)/C(=N/C1CCCCC1)NC(=S)N2c1ccccc1,> 100 µM (inactive),,> 100 µM (inactive),> 100 µM (inactive),,> 100 µM (inactive),> 100 µM (inactive),> 100 µM (inactive),> 100 µM (inactive),> 100 µM (inactive),> 100 µM (inactive),> 100 µM (inactive),> 100 µM (inactive),> 100 µM (inactive),> 100 µM (inactive),> 100 µM (inactive),,13.8 µM (inactive),> 100 µM (inactive)
COc1cc2c(cc1OC)-c1cc(OC)c(OC)cc1[C@H]1CN3CCC[C@@]3(O)C=C21,< 0.0001 µM (active),< 0.0001 µM (active),< 0.0001 µM (active),< 0.0001 µM (active),< 0.0001 µM (active),0.01 µM (active),< 0.0001 µM (active),< 0.0001 µM (active),< 0.0001 µM (active),< 0.0001 µM (active),< 0.0001 µM (active),0.01 µM (active),< 0.0001 µM (active),< 0.0001 µM (active),< 0.0001 µM (active),< 0.0001 µM (active),< 0.0001 µM (active),,
CC(=O)C(C(C)=O)=C1CCCC(O)O1 (stereo unspecified),> 100 µM (inactive),,> 100 µM (inactive),> 100 µM (inactive),,> 100 µM (inactive),> 100 µM (inactive),> 100 µM (inactive),> 100 µM (inactive),> 100 µM (inactive),,> 100 µM (inactive),> 100 µM (inactive),> 100 µM (inactive),> 100 µM (inactive),> 100 µM (inactive),,47.4 µM (inactive),> 100 µM (inactive)
C[C@]12CC/C(=N\O)C=C1CC[C@@H]1C2CC[C@@]2(C)C1CC[C@@H]2OC1CCCCO1 (stereo partly specified),18.3 µM (inactive),16.9 µM (inactive),20.4 µM (inactive),21.7 µM (inactive),> 10 µM (inactive),25.4 µM (inactive),17.7 µM (inactive),31.2 µM (inactive),> 10 µM (inactive),21.9 µM (inactive),17.7 µM (inactive),15.4 µM (inactive),19 µM (inactive),35.6 µM (inactive),17.7 µM (inactive),15.6 µM (inactive),16.7 µM (inactive),,
N#CC1CCCCOCCOCCOCCOCCOCCCCCC1=O (stereo unspecified),> 100 µM (inactive),> 100 µM (inactive),> 100 µM (inactive),> 100 µM (inactive),> 100 µM (inactive),> 100 µM (inactive),> 100 µM (inactive),> 100 µM (inactive),> 100 µM (inactive),> 100 µM (inactive),> 100 µM (inactive),> 100 µM (inactive),> 100 µM (inactive),> 100 µM (inactive),> 100 µM (inactive),> 100 µM (inactive),> 100 µM (inactive),,
COC(=O)/C(C#N)=C1\CCC(Nc2cccc(C(F)(F)F)c2)N1C (stereo unspecified),> 100 µM (inactive),> 100 µM (inactive),> 100 µM (inactive),63.1 µM (inactive),> 100 µM (inactive),46.1 µM (inactive),> 100 µM (inactive),> 100 µM (inactive),> 100 µM (inactive),> 100 µM (inactive),> 100 µM (inactive),> 100 µM (inactive),45.8 µM (inactive),> 100 µM (inactive),> 100 µM (inactive),> 100 µM (inactive),> 100 µM (inactive),,
COc1ccc(NC(=O)CC/C(CC(=O)c2ccco2)=N/NC(=O)C(N)=O)cc1,> 100 µM (inactive),46 µM (inactive),> 100 µM (inactive),> 100 µM (inactive),> 100 µM (inactive),61.9 µM (inactive),> 100 µM (inactive),> 100 µM (inactive),> 100 µM (inactive),98.9 µM (inactive),> 100 µM (inactive),> 100 µM (inactive),28.1 µM (inactive),> 100 µM (inactive),> 100 µM (inactive),> 100 µM (inactive),> 100 µM (inactive),,
